Each structure is given as a SMILES string. Bounds are passed on as bounds.

Assay [1] concerns T-Rex 293 cell line SC3 cells lacking increased expression of androgen receptor protein. Briefly: Cellular growth inhibition, T-Rex 293 SC3 cells without doxycycline (CellTiter-Glo 2.0, 72 hours). To be noted: T-Rex 293 SC3 cells not exposed to doxycycline (no increased androgen receptor expression). The class given is cell-based.
Assay [2] has as its system VCaP cells. Kind of assay: Cellular growth inhibition assay for VCaP cells (CellTiter-Glo 2.0, 72 hours). The class given is cell-based, human. As to conditions: for GI50: CellTiter-Glo 2.0.
The test system of assay [3] is T-Rex 293 cell line SC3 cells having increased expression of androgen receptor protein due to exposure to doxycycline. Briefly: Cellular growth inhibition, T-Rex 293 SC3 cells with doxycycline-induced androgen receptor (CellTiter-Glo 2.0, 72 hours). The class given is cell-based. To be noted: for GI50: T-Rex 293 SC3 cells with 10 ng/ml doxycycline (increased androgen receptor expression), 72 hours, CellTiter-Glo 2.0. (In general: ATP-based viability assays read luminescence as a measure of living cells.)

By GI50 is commonly meant the concentration that inhibits growth by half. With `COc1cc(O[C@H]2CC[C@H](NC(=O)c3ccc(-n4cc5c(c4)CN(c4ccc(C6=N[C@@H](C)c7nnc(C)n7-c7sc(C)c(C)c76)cc4)C5)nn3)CC2)ccc1C#N` [Compound I-108], the GI50 in assay [1] (72 h) is under 500 nM; in assay [2] (Homo sapiens, VCaP, 72 h), under 500 nM; in assay [3], under 500 nM.

For the molecule `COCC[C@@H]1N=C(c2ccc(C3CCC4(CC3)CCN(c3ccc(C(=O)NC5CCC(Oc6ccc(C#N)c(OC)c6)CC5)nn3)C4)cc2)c2c(sc(C)c2C)-n2c(C)nnc21` (stereo partly drawn) [Compound I-29, N-[4-(4-cyano-3-methoxy-phenoxy)cyclohexyl]-6-[8-[4-[(9S)-9-(2-methoxyethyl)-4,5,13-trimethyl-3-thia-1,8,11,12-tetrazatricyclo[8.3.0.0^2,6]trideca-2 (6),4,7,10,12-pentaen-7-yl]phenyl]-2-azaspiro[4.5]decan-2-yl]pyridazine-3-carboxamide], the GI50 in assay [1] (72 h) was under 500 nM; in assay [2] (Homo sapiens, VCaP, 72 h) it was under 500 nM; in assay [3], under 500 nM.

Regarding `COc1cc(O[C@H]2CC[C@H](NC(=O)c3ccc(N4CCC5(CCN(c6ccc(C7=NC(Cc8ncco8)c8nnc(C)n8-c8sc(C)c(C)c87)cc6F)CC5)C4)nn3)CC2)ccc1C#N` (single isomer, unassigned) [Compound I-135], the concentration for 50% growth inhibition (GI50) in assay [1], in assay [2] (72 hours) and in assay [3] was under 500 nM throughout.

For `COc1cc(O[C@H]2CC[C@H](NC(=O)c3ccc(N4CCC5(CCC(c6ccc(C7=N[C@@H](Cc8ncco8)c8nnc(C)n8-c8sc(C)c(C)c87)cc6)CC5)C4)nn3)CC2)ccc1C#N` (some centres unmarked) [Compound I-101], the GI50 in assay [1], in assay [2] (72 hours) and in assay [3] was under 500 nM in each case. Further, the “Ratio of GI50's” value is listed as 1 in assay [2] (GI50 of the top compound in the pair divided by GI50 of the lower compound) and 1 in assay [3] (GI50 of the top compound in the pair divided by GI50 of the lower compound, T-Rex 293 SC3 cells with doxycycline-induced androgen receptor).

On to `COc1cc(O[C@H]2CC[C@H](NC(=O)c3ccc(N4CC56CCCCC5(CN(c5ccc(C7=N[C@@H](C)c8nnc(C)n8-c8sc(C)c(C)c87)cc5)C6)C4)nn3)CC2)ccc1C#N` (some centres unmarked) [Compound I-78], for which the GI50 was under 500 nM in assay [1] (72 h); under 500 nM in assay [2] (Homo sapiens, VCaP, 72 h); under 500 nM in assay [3].

As to `COc1cc(O[C@H]2CC[C@H](NC(=O)c3ccc(N4CCC5(CCC(c6ccc(C7=N[C@@H](C)c8nnc(C)n8-c8sc(C)c(C)c87)c(F)c6)CC5)C4)nn3)CC2)ccc1C#N` (some centres unmarked) [Compound I-59], the GI50 is under 500 nM in assay [1] (72 h); under 500 nM in assay [2] (Homo sapiens, VCaP, 72 h); under 500 nM in assay [3].

`COc1cc(O[C@H]2CC[C@H](NC(=O)c3ccc(N4CC5(CC(C#Cc6ccc(C7=NC(Cc8ncco8)c8nnc(C)n8-c8sc(C)c(C)c87)c(F)c6)C5)C4)nn3)CC2)ccc1C#N` (some centres unmarked) [Compound I-112]: the 50% growth inhibitory concentration (GI50) in assay [1] (72 h) is over 3000 nM; in assay [2] (Homo sapiens, VCaP, 72 h), under 500 nM; in assay [3] it was under 500 nM.

With `CCc1csc2c1C(c1ccc(OC3CC4(CCN(c5ncc(C(=O)N[C@H]6C(C)(C)[C@H](Oc7ccc(C#N)c(OC)c7)C6(C)C)cn5)CC4)C3)cc1)=N[C@@H](Cc1ncco1)c1nnc(C)n1-2` [III-1, N-[(1r,3r)-3-(4-cyano-3-methoxy-phenoxy)-2,2,4,4-tetramethyl-cyclobutyl]-2-[2-[4-[(9S)-5-ethyl-13-methyl-9-(oxazol-2-ylmethyl)-3-thia-1,8,11,12-tetrazatricyclo[8.3.0.0^2,6]trideca-2 (6),4,7,10,12-pentaen-7-yl]phenoxy]-7-azaspiro[3.5]nonan-7-yl]pyrimidine-5-carboxamide], the GI50 is 500 to 1500 nM in assay [1] (72 h); under 500 nM in assay [2] (Homo sapiens, VCaP, 72 h); under 500 nM in assay [3].

`Cc1sc2c(c1C)C(c1ccc(OC3CC4(CCN(c5ccc(C(=O)NC6CCC(Oc7ccc(C#N)c(OC(F)(F)F)c7)CC6)nn5)CC4)C3)cc1)=N[C@@H](Cc1ncco1)c1nnc(C)n1-2` (stereo partly drawn) [Compound I-16, N-[4-[4-cyano-3-(trifluoromethoxy)phenoxy]cyclohexyl]-6-[2-[4-[(9S)-4,5,13-trimethyl-9-(oxazol-2-ylmethyl)-3-thia-1,8,11,12-tetrazatricyclo[8.3.0.0^2,6]trideca-2 (6),4,7,10,12-pentaen-7-yl]phenoxy]-7-azaspiro[3.5]nonan-7-yl]pyridazine-3-carboxamide]: the GI50 is under 500 nM in assay [1] (72 h); under 500 nM in assay [2] (Homo sapiens, VCaP, 72 h); under 500 nM in assay [3].

For the molecule `COc1cc(O[C@H]2CC[C@H](NC(=O)c3ccc(N4CCC5(CCC(c6ccc(C7=N[C@@H](C)c8nnc(C)n8-c8sc(C)c(C)c87)cc6)C5)CC4)nn3)CC2)ccc1C#N` (some centres unmarked) [Compound I-21], the values for the 50% growth inhibitory concentration (GI50) in assay [1], in assay [2] (72 hours) and in assay [3] were under 500 nM, 500 to 1500 nM and under 500 nM, respectively.

Consider `COc1cc(O[C@H]2CC[C@H](NC(=O)c3ccc(N4CCC5(CCC(c6ccc(C7=N[C@@H](C)c8nnc(C)n8-c8sc(C)c(C)c87)cc6C(C)C)CC5)C4)nn3)CC2)ccc1C#N` (some centres unmarked) [Compound I-121], for which the GI50 in assay [1] (72 h) is over 3000 nM; in assay [2] (Homo sapiens, VCaP, 72 h), under 500 nM; in assay [3], under 500 nM.

Take `COc1cc(O[C@H]2CC[C@H](NC(=O)c3ccc(N4CCC5(CCC(c6ccc(C7=N[C@@H](C)c8nnc(C)n8-c8sc(C)c(C)c87)cn6)CC5)C4)nn3)CC2)ccc1C#N` (stereo partly drawn) [Compound I-86, N-[4-(4-cyano-3-methoxy-phenoxy)cyclohexyl]-6-[8-[5-[(9S)-4,5,9,13-tetramethyl-3-thia-1,8,11,12-tetrazatricyclo[8.3.0.0^2,6]trideca-2 (6),4,7,10,12-pentaen-7-yl]-2-pyridyl]-2-azaspiro[4.5]decan-2-yl]pyridazine-3-carboxamide]: the GI50 is over 3000 nM in assay [1]; under 500 nM in assay [2] (Homo sapiens, VCaP, 72 h); under 500 nM in assay [3].

For the molecule `COc1cc(O[C@H]2CC[C@H](NC(=O)c3ccc(N4CCC5(CCC(c6ccc(C7=N[C@@H](C)c8nnc(C)n8-c8sc(C)c(C)c87)cc6Cl)CC5)C4)nn3)CC2)ccc1C#N` (some centres unmarked) [Compound I-85], the GI50 in assay [1] is over 3000 nM; in assay [2] (72 hours), under 500 nM; in assay [3] it was under 500 nM.

Turning to `COc1cc(O[C@H]2CC[C@H](NC(=O)c3ccc(N4CCC5(CCC(c6ccc(C7=N[C@@H](C)c8nnc(C)n8-c8sc(C)c(C)c87)nc6)CC5)C4)nn3)CC2)ccc1C#N` (some centres unmarked) [Compound I-88], the GI50 in assay [1] (72 h) is under 500 nM; in assay [2] (Homo sapiens, VCaP, 72 h) it was under 500 nM; in assay [3] it was under 500 nM.

With `COc1cc(O[C@H]2CC[C@H](NC(=O)c3ccc(N4CCC5(CCN(c6ccc(C7=N[C@@H](C)c8nnc(C)n8-c8sc(C)c(C)c87)c(Cl)c6)CC5)C4)nn3)CC2)ccc1C#N` [Compound I-74], the 50% growth inhibitory concentration (GI50) in assay [1] (72 h) is over 3000 nM; in assay [2] (Homo sapiens, VCaP, 72 h), under 500 nM; in assay [3] it was under 500 nM.

As to `Cc1sc2c(c1C)C(c1ccc(C#CC3CC4(C3)CN(c3ccc(C(=O)N[C@H]5CC[C@H](Oc6ccc(C#N)c(OC(F)(F)F)c6)CC5)nn3)C4)cc1)=N[C@@H](C)c1nnc(C)n1-2` [Compound I-12, N-[4-[4-cyano-3-(trifluoromethoxy)phenoxy]cyclohexyl]-6-[6-[2-[4-[(9S)-4,5,9,13-tetramethyl-3-thia-1,8,11,12-tetrazatricyclo[8.3.0.0^2,6]trideca-2 (6),4,7,10,12-pentaen-7-yl]phenyl]ethynyl]-2-azaspiro[3.3]heptan-2-yl]pyridazine-3-carboxamide], the GI50 in assay [1] (72 h) was under 500 nM; in assay [2] (Homo sapiens, VCaP, 72 h), under 500 nM; in assay [3] it was under 500 nM.

Take `CC[C@@H]1N=C(c2ccc(C3CCC4(CC3)CCN(c3ccc(C(=O)NC5CCC(Oc6ccc(C#N)c(OC(F)(F)F)c6)CC5)nn3)C4)cc2)c2c(sc(C)c2C)-n2c(C)nnc21` (stereo partly drawn) [Compound I-13, N-((1r,4r)-4-(4-cyano-3-(trifluoromethoxy)phenoxy)cyclohexyl)-6-(8-(4-((S)-6-ethyl-2,3,9-trimethyl-6H-thieno[3,2-f][1,2,4]triazolo[4,3-a][1,4]diazepin-4-yl)phenyl)-2-azaspiro[4.5]decan-2-yl) pyridazine-3-carboxamide]: the GI50 in assay [1], in assay [2] (72 hours) and in assay [3] was under 500 nM throughout.

`COc1cc(O[C@H]2CC[C@H](NC(=O)c3cnc(N4CCC5(CCN(c6ccc(C7=N[C@@H](C)c8nnc(C)n8-c8sc(C)c(C)c87)cc6)CC5)C4)nc3)CC2)ccc1C#N` [Compound I-37, N-((1r,4r)-4-(4-cyano-3-methoxyphenoxy)cyclohexyl)-2-(8-(4-((S)-2,3,6,9-tetramethyl-6H-thieno[3,2-f][1,2,4]triazolo[4,3-a][1,4]diazepin-4-yl)phenyl)-2,8-diazaspiro[4.5]decan-2-yl)pyrimidine-5-carboxamide]: the GI50 was under 500 nM in assay [1] (72 h); under 500 nM in assay [2] (Homo sapiens, VCaP, 72 h); under 500 nM in assay [3].

Regarding `COc1cc(O[C@H]2CC[C@H](NC(=O)c3ccc(N4C[C@]5(F)CN(c6ccc(C7=N[C@@H](Cc8ncco8)c8nnc(C)n8-c8sc(C)c(C)c87)cc6)C[C@]5(F)C4)nn3)CC2)ccc1C#N` [Compound I-119], the concentration for 50% growth inhibition (GI50) in assay [1] (72 h) was under 500 nM; in assay [2] (Homo sapiens, VCaP, 72 h) it was under 500 nM; in assay [3], under 500 nM.

Consider `COc1cc(O[C@H]2CC[C@H](NC(=O)c3ccc(N4CCC5(CCC(c6ccc(C7=N[C@@H](C)c8nnc(C)n8-c8sc(C)c(C)c87)c(OC)c6)CC5)C4)nn3)CC2)ccc1C#N` (some centres unmarked) [Compound I-69], for which the GI50 in assay [1], in assay [2] (72 hours) and in assay [3] was under 500 nM in each case.

On to `COc1cc(O[C@H]2CC[C@H](NC(=O)c3ccc(N4CCC5(CCN(c6ccc(C7=N[C@@H](C)c8nnc(C)n8-c8sc(C)c(C)c87)c(OC)c6)CC5)C4)nn3)CC2)ccc1C#N` [Compound I-75], for which the GI50 in assay [1] (72 h) was under 500 nM; in assay [2] (Homo sapiens, VCaP, 72 h), under 500 nM; in assay [3], under 500 nM.

`COc1cc(O[C@H]2CC[C@H](NC(=O)c3ccc(N4C[C@H]5CN(c6ccc(C7=N[C@@H](C)c8nnc(C)n8-c8sc(C)c(C)c87)c(F)c6)C[C@H]5C4)nn3)CC2)ccc1C#N` [Compound I-77]: the 50% growth inhibitory concentration (GI50) in assay [1] (72 h) is under 500 nM; in assay [2] (Homo sapiens, VCaP, 72 h), under 500 nM; in assay [3], under 500 nM.
